Laboratory results as given in paper PMC5843908, “Detection of PRMT1 inhibitors with stopped flow fluorescence” (Signal Transduction and Targeted Therapy, 2018).
Where two headings read alike, the source gives them in different places.

Assays:
PRMT1 [1] = target: T1, PRMT1 (Homo sapiens, UniProt Q99873)
Text: We plotted the values of a · k1 or −b · k2 against the SAM concentration (Fig. 3c, d).
(§1) In a stopped flow fluorescence assay, the binding of H4FL to PRMT1 (or the PRMT1—cofactor complex) quenches the peptide fluorescence, while release of the peptide restores the fluorescence. […] The widths of the entrance and exit slits of the monochromator were set to 0.5 mm. An equal volume of samples from two syringes was driven into the observation cell for mixing measurements. The H4FL concentration in all experiments was 0.4 μM. […] The fluorescent signal was recorded for 900 seconds, with 10,000 data points in total. Data from four to six drives were collected and averaged for each curve.
After averaging the shot data, the association time courses were fitted to a double-exponential function (equation 2) using GraphPad Prism (CA, USA). […] F is the fluorescence intensity at time t, k1, and k2 are the rate constants for Phase I and Phase II, a is the amplitude of the fluorescence change for k1, and b is the amplitude of the fluorescence change for k2. Simulation curves based on the values of a, b, k1, and k2 at fixed c = 1 were produced using Matlab.

PRMT1 [2] = conditions: read-out: Km of SAM on H4FL; cited from earlier work
PRMT1 [3] = target: T1, PRMT1; assay: Stopped flow fluorescence assay of PRMT1 inhibition ([PRMT1] 0.2 µM, [SAM] 3.5 µM, [H4FL] 0.4 µM); format: biochemical;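 also: Stopped-flow traces of fluorescent H4FL peptide quenched on binding PRMT1 and restored on release, recorded 900 s, averaged over repeated drives and fit to a double-exponential model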
Text: To obtain the IC50 of a specific inhibitor, the relative activities of the enzyme in presence of different concentrations of the inhibitor are required (equation 1).[37] […] By adding different concentrations of the inhibitor to the reaction mixture, the relative activity of the enzyme can be obtained by normalizing K to the reaction rate without the inhibitor, and then calculate the IC50 value using equation 1. In our stopped flow fluorescence assay, the reaction rate of Phase I and Phase II can be obtained by approximating and deriving the double-exponential equation (equation 2). In Phase I, during a very short period of time (where t is small), the curve is nearly linear, and the exponential equation can be approximately described as F1 = a · (−k1) · t. Therefore, the derivation of F1 equals –k1∙a, which is the slope of Phase I. Similarly, the curve of Phase II at early stage can be approximately described as F2 = b · (−k2) · t. This derivation of F2 equals –k2∙b, which is the slope of Phase II. The slopes at various inhibitor concentrations, normalized to the slope in the absence of inhibitor, can be used to obtain the corresponding relative enzyme activity from which the potency value (IC50) of the inhibitor can be calculated with equation 1.
as §1
After averaging the shot data, the association time courses were fitted to a double-exponential function (equation 2) using GraphPad Prism (CA, USA). […] F is the fluorescence intensity at time t, k1, and k2 are the rate constants for Phase I and Phase II, a is the amplitude of the fluorescence change for k1, and b is the amplitude of the fluorescence change for k2. Simulation curves based on the values of a, b, k1, and k2 at fixed c = 1 were produced using Matlab. The IC50 value of inhibitors is determined by equation 1 using GraphPad Prism (CA, USA).

T1 sequence (Q99873 29-371): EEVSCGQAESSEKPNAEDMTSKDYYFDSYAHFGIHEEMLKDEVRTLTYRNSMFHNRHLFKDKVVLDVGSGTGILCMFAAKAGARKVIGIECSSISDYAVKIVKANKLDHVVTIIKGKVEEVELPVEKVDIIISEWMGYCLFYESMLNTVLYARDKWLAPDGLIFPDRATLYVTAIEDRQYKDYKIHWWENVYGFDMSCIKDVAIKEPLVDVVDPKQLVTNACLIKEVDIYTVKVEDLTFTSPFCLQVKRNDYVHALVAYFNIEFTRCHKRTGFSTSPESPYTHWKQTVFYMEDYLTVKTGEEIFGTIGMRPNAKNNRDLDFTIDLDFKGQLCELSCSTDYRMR

C[S+](CC[C@H](N)C(=O)[O-])C[C@H]1O[C@@H](n2cnc3c(N)ncnc32)[C@H](O)[C@@H]1O (stereo partly shown) [SAM, S-adenosylmethionine]
-b·k2 (slope of Phase II) (PRMT1 [1]; [SAM] 1.5 µM): 0.0002 ± 9.72e-07 s⁻¹
a (amplitude, Phase I) (PRMT1 [1]; [SAM] 1.5 µM): 0.0482 ± 2.31E-04
a·k1 (slope of Phase I) (PRMT1 [1]; [SAM] 1.5 µM): 0.00212 ± 2.2e-05 s⁻¹
b (amplitude, Phase II) (PRMT1 [1]; [SAM] 1.5 µM): -0.07363 ± 8.97E-05
k1 (rate constant, Phase I) (PRMT1 [1]; [SAM] 1.5 µM): 0.04402 ± 4.06E-04 s^-1
k2 (rate constant, Phase II) (PRMT1 [1]; [SAM] 1.5 µM): 0.002713 ± 1.28E-05 s^-1
-b·k2 (slope of Phase II) (PRMT1 [1]; [SAM] 3.5 µM): 0.000878 ± 2.58e-06 s⁻¹
a (amplitude, Phase I) (PRMT1 [1]; [SAM] 3.5 µM): 0.0846 ± 3.83E-04
a·k1 (slope of Phase I) (PRMT1 [1]; [SAM] 3.5 µM): 0.00678 ± 6.58e-05 s⁻¹
b (amplitude, Phase II) (PRMT1 [1]; [SAM] 3.5 µM): -0.1161 ± 2.14E-04
k1 (rate constant, Phase I) (PRMT1 [1]; [SAM] 3.5 µM): 0.08016 ± 6.88E-04 s^-1
k2 (rate constant, Phase II) (PRMT1 [1]; [SAM] 3.5 µM): 0.007565 ± 1.73E-05 s^-1
-b·k2 (slope of Phase II) (PRMT1 [1]; [SAM] 7.5 µM): 0.00141 ± 4.46e-06 s⁻¹
a (amplitude, Phase I) (PRMT1 [1]; [SAM] 7.5 µM): 0.1529 ± 1.79E-03
a·k1 (slope of Phase I) (PRMT1 [1]; [SAM] 7.5 µM): 0.0272 ± 0.000547 s⁻¹
b (amplitude, Phase II) (PRMT1 [1]; [SAM] 7.5 µM): -0.2054 ± 3.40E-04
k1 (rate constant, Phase I) (PRMT1 [1]; [SAM] 7.5 µM): 0.1778 ± 2.91E-03 s^-1
k2 (rate constant, Phase II) (PRMT1 [1]; [SAM] 7.5 µM): 0.006848 ± 1.85E-05 s^-1
-b·k2 (slope of Phase II) (PRMT1 [1]; [SAM] 15 µM): 0.00313 ± 1.01e-05 s⁻¹
a (amplitude, Phase I) (PRMT1 [1]; [SAM] 15 µM): 0.1992 ± 2.65E-03
a·k1 (slope of Phase I) (PRMT1 [1]; [SAM] 15 µM): 0.0493 ± 0.00109 s⁻¹
b (amplitude, Phase II) (PRMT1 [1]; [SAM] 15 µM): -0.2664 ± 5.21E-04
k1 (rate constant, Phase I) (PRMT1 [1]; [SAM] 15 µM): 0.2476 ± 4.40E-03 s^-1
k2 (rate constant, Phase II) (PRMT1 [1]; [SAM] 15 µM): 0.01175 ± 3.03E-05 s^-1
Km (PRMT1 [2]): 3.1 ± 0.46 µM

Nc1ncnc2c1ncn2[C@@H]1O[C@H](C[C@@H](N)CC[C@H](N)C(=O)O)[C@@H](O)[C@H]1O [sinefungin]
-b·k2 (slope of Phase II) (PRMT1 [3]; [sinefungin] 0.0375 µM): 0.000574 ± 1.23e-06 s⁻¹
a (amplitude, Phase I) (PRMT1 [3]; [sinefungin] 0.0375 µM): 0.1645 ± 3.77E-04
a·k1 (slope of Phase I) (PRMT1 [3]; [sinefungin] 0.0375 µM): 0.0107 ± 4.96e-05 s⁻¹
b (amplitude, Phase II) (PRMT1 [3]; [sinefungin] 0.0375 µM): -0.1699 ± 1.17E-04
k1 (rate constant, Phase I) (PRMT1 [3]; [sinefungin] 0.0375 µM): 0.0653 ± 2.62E-04 s^-1
k2 (rate constant, Phase II) (PRMT1 [3]; [sinefungin] 0.0375 µM): 0.00338 ± 6.86e-06 s⁻¹
-b·k2 (slope of Phase II) (PRMT1 [3]; [sinefungin] 0.075 µM): 0.00042 ± 1.32e-06 s⁻¹
a (amplitude, Phase I) (PRMT1 [3]; [sinefungin] 0.075 µM): 0.2064 ± 3.83E-04
a·k1 (slope of Phase I) (PRMT1 [3]; [sinefungin] 0.075 µM): 0.0115 ± 4.27e-05 s⁻¹
b (amplitude, Phase II) (PRMT1 [3]; [sinefungin] 0.075 µM): -0.2170 ± 1.94E-04
k1 (rate constant, Phase I) (PRMT1 [3]; [sinefungin] 0.075 µM): 0.05564 ± 1.79E-04 s^-1
k2 (rate constant, Phase II) (PRMT1 [3]; [sinefungin] 0.075 µM): 0.00194 ± 5.83e-06 s⁻¹
-b·k2 (slope of Phase II) (PRMT1 [3]; [sinefungin] 0.15 µM): 0.000351 ± 1.48e-06 s⁻¹
a (amplitude, Phase I) (PRMT1 [3]; [sinefungin] 0.15 µM): 0.2215 ± 4.17E-04
a·k1 (slope of Phase I) (PRMT1 [3]; [sinefungin] 0.15 µM): 0.0126 ± 4.69e-05 s⁻¹
b (amplitude, Phase II) (PRMT1 [3]; [sinefungin] 0.15 µM): -0.2165 ± 3.17E-04
k1 (rate constant, Phase I) (PRMT1 [3]; [sinefungin] 0.15 µM): 0.05703 ± 1.83E-04 s^-1
k2 (rate constant, Phase II) (PRMT1 [3]; [sinefungin] 0.15 µM): 0.00162 ± 6.43e-06 s⁻¹
-b·k2 (slope of Phase II) (PRMT1 [3]; [sinefungin] 0.3 µM): 0.00021 ± 1.94e-06 s⁻¹
a (amplitude, Phase I) (PRMT1 [3]; [sinefungin] 0.3 µM): 0.2200 ± 4.51E-04
a·k1 (slope of Phase I) (PRMT1 [3]; [sinefungin] 0.3 µM): 0.0118 ± 4.79e-05 s⁻¹
b (amplitude, Phase II) (PRMT1 [3]; [sinefungin] 0.3 µM): -0.1711 ± 6.89E-04
k1 (rate constant, Phase I) (PRMT1 [3]; [sinefungin] 0.3 µM): 0.05374 ± 1.88E-04 s^-1
k2 (rate constant, Phase II) (PRMT1 [3]; [sinefungin] 0.3 µM): 0.00123 ± 1.02e-05 s⁻¹
-b·k2 (slope of Phase II) (PRMT1 [3]; [sinefungin] 0.75 µM): 0.000123 ± 2.15e-06 s⁻¹
a (amplitude, Phase I) (PRMT1 [3]; [sinefungin] 0.75 µM): 0.2668 ± 5.02E-04
a·k1 (slope of Phase I) (PRMT1 [3]; [sinefungin] 0.75 µM): 0.0149 ± 5.48e-05 s⁻¹
b (amplitude, Phase II) (PRMT1 [3]; [sinefungin] 0.75 µM): -0.1045 ± 8.19E-04
k1 (rate constant, Phase I) (PRMT1 [3]; [sinefungin] 0.75 µM): 0.05576 ± 1.77E-04 s^-1
k2 (rate constant, Phase II) (PRMT1 [3]; [sinefungin] 0.75 µM): 0.00118 ± 1.83e-05 s⁻¹
-b·k2 (slope of Phase II) (PRMT1 [3]; [sinefungin] 1.5 µM): 7.22e-05 ± 5.34e-06 s⁻¹
a (amplitude, Phase I) (PRMT1 [3]; [sinefungin] 1.5 µM): 0.287 ± 5.51E-04
a·k1 (slope of Phase I) (PRMT1 [3]; [sinefungin] 1.5 µM): 0.0164 ± 6.01e-05 s⁻¹
b (amplitude, Phase II) (PRMT1 [3]; [sinefungin] 1.5 µM): -0.1776 ± 8.27E-03
k1 (rate constant, Phase I) (PRMT1 [3]; [sinefungin] 1.5 µM): 0.05722 ± 1.79E-04 s^-1
k2 (rate constant, Phase II) (PRMT1 [3]; [sinefungin] 1.5 µM): 0.000406 ± 2.33e-05 s⁻¹
-b·k2 (slope of Phase II) (PRMT1 [3]; [sinefungin] 3 µM): 4.12e-05 ± 0.000152 s⁻¹
a (amplitude, Phase I) (PRMT1 [3]; [sinefungin] 3 µM): 0.2925 ± 5.44E-04
a·k1 (slope of Phase I) (PRMT1 [3]; [sinefungin] 3 µM): 0.0166 ± 5.83e-05 s⁻¹
b (amplitude, Phase II) (PRMT1 [3]; [sinefungin] 3 µM): -4.517
k1 (rate constant, Phase I) (PRMT1 [3]; [sinefungin] 3 µM): 0.05659 ± 1.69E-04 s^-1
k2 (rate constant, Phase II) (PRMT1 [3]; [sinefungin] 3 µM): 9.13e-06 ± 3.36e-05 s⁻¹
-b·k2 (slope of Phase II) (PRMT1 [3]; [sinefungin] 7.5 µM): 1.42e-05 ± 0.000372 s⁻¹
a (amplitude, Phase I) (PRMT1 [3]; [sinefungin] 7.5 µM): 0.2481 ± 5.15E-04
a·k1 (slope of Phase I) (PRMT1 [3]; [sinefungin] 7.5 µM): 0.0148 ± 5.77e-05 s⁻¹
b (amplitude, Phase II) (PRMT1 [3]; [sinefungin] 7.5 µM): -4.223
k1 (rate constant, Phase I) (PRMT1 [3]; [sinefungin] 7.5 µM): 0.05968 ± 1.97E-04 s^-1
k2 (rate constant, Phase II) (PRMT1 [3]; [sinefungin] 7.5 µM): 3.37e-06 ± 8.82e-05 s⁻¹
-b·k2 (slope of Phase II) (PRMT1 [3]; [sinefungin] 15 µM): 2.66e-06 ± 0.000274 s⁻¹
a (amplitude, Phase I) (PRMT1 [3]; [sinefungin] 15 µM): 0.2592 ± 5.43E-04
a·k1 (slope of Phase I) (PRMT1 [3]; [sinefungin] 15 µM): 0.0145 ± 5.77e-05 s⁻¹
b (amplitude, Phase II) (PRMT1 [3]; [sinefungin] 15 µM): -0.5239
k1 (rate constant, Phase I) (PRMT1 [3]; [sinefungin] 15 µM): 0.05599 ± 1.89E-04 s^-1
k2 (rate constant, Phase II) (PRMT1 [3]; [sinefungin] 15 µM): 5.08e-06 ± 0.000523 s⁻¹
